Columns and labels:
Type in all cases: in vivo
[1] = system: Chilo suppressalis; assay: Example B4: Chilo suppressalis (striped rice stemborer), artificial diet, L2 larvae; conditions: 144 h, application rate of 200 ppm, 6 days after infestation, read-out: control in at least one of the three categories (mortality, anti-feedant effect or growth inhibition)
Description: Example B4: Chilo suppressalis (Striped Rice Stemborer)
24-well microtiter plates with artificial diet were treated with aqueous test solutions prepared from 10′000 ppm DMSO stock solutions by pipetting. After drying, the plates were infested with L2 larvae (6-8 per well). The samples were assessed for mortality, anti-feeding effect, and growth inhibition in comparison to untreated samples 6 days after infestation. Control of Chilo suppressalis by a test sample is given when at least one of the categories mortality, anti-feedant effect, and growth inhibition is higher than the untreated sample.

[2] = system: Spodoptera littoralis; assay: Example B9: Spodoptera littoralis (Egyptian cotton leaf worm), cotton leaf discs sprayed, L1 larvae; conditions: foliar, 72 h, application rate of 200 ppm, 3 days after infestation, read-out: control in at least one of the three categories (mortality, anti-feedant effect or growth inhibition)
[3] = system: Plutella xylostella; assay: Example B14: Plutella xylostella (diamondback moth), 96-well artificial diet; conditions: 216 h, application rate of 500 ppm, 9 days after infestation
Description: Example B14: Plutella xylostella (Diamondback Moth)
96-well microtiter plates containing artificial diet were treated with aqueous test solutions, prepared from 10′000 ppm DMSO stock solutions, by a liquid handling robot. After drying, eggs (˜30 per well) were infested onto a netted lid which was suspended above the diet. The eggs hatch and L1 larvae move down to the diet. The samples were assessed for mortality 9 days after infestation.

[4] = system: Diabrotica balteata; assay: Example B1: Diabrotica balteata (corn root worm), maize sprouts sprayed, L2 larvae; conditions: 96 h, application rate of 200 ppm, 4 days after infestation, L2 larvae on maize sprouts, read-out: control in at least one of the two categories (mortality or growth inhibition)
Description: Example B1: Diabrotica balteata (Corn Root Worm)
Maize sprouts placed onto an agar layer in 24-well microtiter plates were treated with aqueous test solutions prepared from 10′000 ppm DMSO stock solutions by spraying. After drying, the plates were infested with L2 larvae (6 to 10 per well). The samples were assessed for mortality and growth inhibition in comparison to untreated samples 4 days after infestation.

[5] = system: Plutella xylostella; assay: Example B5: Plutella xylostella (diamond back moth), artificial diet, 24-well, eggs; conditions: 192 h, application rate of 200 ppm, 8 days after infestation, read-out: control in at least one of the two categories (mortality or growth inhibition)
Description: Example B5: Plutella xylostella (Diamond Back Moth)
24-well microtiter plates with artificial diet were treated with aqueous test solutions prepared from 10′000 ppm DMSO stock solutions by pipetting. After drying, Plutella eggs were pipetted through a plastic stencil onto a gel blotting paper and the plate was closed with it. The samples were assessed for mortality and growth inhibition in comparison to untreated samples 8 days after infestation.

[6] = system: Myzus persicae; assay: Example B13: Myzus persicae (green peach aphid), 96-well sucrose solution; conditions: 120 h, application rate of 50 ppm, 5 days after infestation
From the text: Example B13: Myzus persicae (Green Peach Aphid)
Test compounds prepared from 10′000 ppm DMSO stock solutions were applied by a liquid handling robot into 96-well microtiter plates and mixed with a sucrose solution. Parafilm was stretched over the 96-well microtiter plate and a plastic stencil with 96 holes was placed onto the plate. Aphids were sieved into the wells directly onto the Parafilm. The infested plates were closed with a gel blotting card and a second plastic stencil and then turned upside down. The samples were assessed for mortality 5 days after infestation.

| Structure (SMILES) | percent control (mortality, anti-feedant effect or growth inhibition) at 200 ppm [1] | percent control (mortality, anti-feedant effect or growth inhibition) at 200 ppm [2] | mortality at 500 ppm [3] | percent control (mortality or growth inhibition) at 200 ppm [4] | percent control (mortality or growth inhibition) at 200 ppm [5] | mortality at 50 ppm [6] |
| --- | --- | --- | --- | --- | --- | --- |
| CC(NC(=O)c1cc(C(F)(F)F)cc(C(F)(F)F)c1)c1nccnc1-c1ccc(Cl)cn1 (stereo not drawn) [Compound P36, N-[1-[3-(5-chloro-2-pyridyl)pyrazin-2-yl]ethyl]-3,5-bis(trifluoromethyl)benzamide] | ≥ 80% |  |  |  |  |  |
| CC(c1nccnc1-c1ccccn1)N(CC1CC1)C(=O)c1cc(Cl)cc(C(F)(F)F)c1 (stereo not drawn) [Compound P11, 3-chloro-N-(cyclopropylmethyl)-N-[1-[3-(2-pyridyl)pyrazin-2-yl]ethyl]-5-(trifluoromethyl)benzamide] |  | ≥ 80% | ≥ 80% | ≥ 80% | ≥ 80% |  |
| CC(c1ncccc1-c1ncccn1)N(CC1CC1)C(=O)c1cc(C(F)(F)F)cc(C(F)(F)F)c1 (stereo not drawn) [Compound P3, N-(cyclopropylmethyl)-N-[1-(3-pyrimidin-2-yl-2-pyridyl)ethyl]-3,5-bis(trifluoromethyl)benzamide] |  | ≥ 80% | ≥ 80% | ≥ 80% | ≥ 80% |  |
| CC(c1nccnc1-c1ccccn1)N(CC1CC1)C(=O)c1cc(C(F)(F)F)cc(C(F)(F)F)c1 (stereo not drawn) [Compound P7, N-(cyclopropylmethyl)-N-[1-[3-(2-pyridyl)pyrazin-2-yl]ethyl]-3,5-bis(trifluoromethyl)benzamide] |  | ≥ 80% | ≥ 80% | ≥ 80% | ≥ 80% |  |
| CC(NC(=O)c1cc(OC(F)F)cc(C(F)(F)F)c1)c1nccnc1-c1ccc(F)cn1 (stereo not drawn) [Compound P35, 3-(difluoromethoxy)-N-[1-[3-(5-fluoro-2-pyridyl)pyrazin-2-yl]ethyl]-5-(trifluoromethyl)benzamide] |  |  |  |  | ≥ 80% |  |
| CC(c1cnc(C(F)(F)F)cc1-c1ncccn1)N(CC1CC1)C(=O)c1cc(C(F)(F)F)cc(C(F)(F)F)c1 (stereo not drawn) [Compound P10, N-(cyclopropylmethyl)-N-[1-[4-pyrimidin-2-yl-6-(trifluoromethyl)-3-pyridyl]ethyl]-3,5-bis(trifluoromethyl)benzamide] |  | ≥ 80% | ≥ 80% |  | ≥ 80% |  |
| CC(NC(=O)c1cc(C(F)(F)F)cc(C(F)(F)F)c1)c1nccnc1-c1ncccc1F (stereo not drawn) [Compound P13, N-[1-[3-(3-fluoro-2-pyridyl)pyrazin-2-yl]ethyl]-3,5-bis(trifluoromethyl)benzamide] | ≥ 80% | ≥ 80% |  | ≥ 80% | ≥ 80% |  |
| CC(c1cnccc1-c1ncccn1)N(CC1CC1)C(=O)c1cc(C(F)(F)F)cc(C(F)(F)F)c1 (stereo not drawn) [Compound P2, N-(cyclopropylmethyl)-N-[1-(4-pyrimidin-2-yl-3-pyridyl)ethyl]-3,5-bis(trifluoromethyl)benzamide] |  |  | ≥ 80% |  | ≥ 80% |  |
| CC(c1ccccc1-c1ccccn1)N(CC1CC1)C(=O)c1cc(Cl)cc(C(F)(F)F)c1 (stereo not drawn) [Compound P27, 3-chloro-N-(cyclopropylmethyl)-N-[1-[2-(2-pyridyl)phenyl]ethyl]-5-(trifluoromethyl)benzamide] |  |  | ≥ 80% |  | ≥ 80% |  |
| CC(NC(=O)c1cc(OCC(F)F)cc(C(F)(F)F)c1)c1nccnc1-c1ncc(C2CC2)cn1 (stereo not drawn) [Compound P32, N-[1-[3-(5-cyclopropylpyrimidin-2-yl)pyrazin-2-yl]ethyl]-3-(2,2-difluoroethoxy)-5-(trifluoromethyl)benzamide] | ≥ 80% | ≥ 80% |  |  | ≥ 80% |  |
| CC(c1cnc(Cl)cc1-c1ncccn1)N(CC1CC1)C(=O)c1cc(C(F)(F)F)cc(C(F)(F)F)c1 (stereo not drawn) [Compound P8, N-[1-(6-chloro-4-pyrimidin-2-yl-3-pyridyl)ethyl]-N-(cyclopropylmethyl)-3,5-bis(trifluoromethyl)benzamide] |  |  | ≥ 80% |  | ≥ 80% |  |
| CC(NC(=O)c1cc(OC(F)F)cc(C(F)(F)F)c1)c1nccnc1-c1ncc(C2CC2)cn1 (stereo not drawn) [Compound P33, N-[1-[3-(5-cyclopropylpyrimidin-2-yl)pyrazin-2-yl]ethyl]-3-(difluoromethoxy)-5-(trifluoromethyl)benzamide] | ≥ 80% | ≥ 80% |  | ≥ 80% | ≥ 80% |  |
| CC(c1cccnc1-c1ncccn1)N(CC1CC1)C(=O)c1cc(C(F)(F)F)cc(C(F)(F)F)c1 (stereo not drawn) [Compound P1, N-(cyclopropylmethyl)-N-[1-(2-pyrimidin-2-yl-3-pyridyl)ethyl]-3,5-bis(trifluoromethyl)benzamide] |  |  | ≥ 80% | ≥ 80% |  |  |
| CC(NC(=O)c1cc(C(F)(F)F)cc(C(F)(F)F)c1)c1nccnc1-c1ccccn1 (stereo not drawn) [Compound P25, N-[1-[3-(2-pyridyl)pyrazin-2-yl]ethyI]-3,5-bis(trifluoromethyl)benzamide] |  | ≥ 80% | ≥ 80% | ≥ 80% | ≥ 80% | ≥ 80% |
| CC(c1ccccc1-c1ccccn1)N(CC1CC1)C(=O)c1cc(C(F)(F)F)cc(C(F)(F)F)c1 (stereo not drawn) [Compound P28, N-(cyclopropylmethyl)-N-[1-[2-(2-pyridyl)phenyl]ethyl]-3,5-bis(trifluoromethyl)benzamide] |  |  | ≥ 80% |  |  |  |
| CC(c1nc(F)ccc1-c1ncccn1)N(CC1CC1)C(=O)c1cc(C(F)(F)F)cc(C(F)(F)F)c1 (stereo not drawn) [Compound P9, N-(cyclopropylmethyl)-N-[1-(6-fluoro-3-pyrimidin-2-yl-2-pyridyl)ethyl]-3,5-bis(trifluoromethyl)benzamide] |  | ≥ 80% | ≥ 80% | ≥ 80% | ≥ 80% |  |
| CC(c1ccccc1-c1ncccn1)N(CC1CC1)C(=O)c1cc(C(F)(F)F)cc(C(F)(F)F)c1 (stereo not drawn) [Compound P26, N-(cyclopropylmethyl)-N-[1-(2-pyrimidin-2-ylphenyl)ethyl]-3,5-bis(trifluoromethyl)benzamide] |  |  | ≥ 80% |  | ≥ 80% |  |
| CC(c1ncncc1-c1ncccn1)N(CC1CC1)C(=O)c1cc(C(F)(F)F)cc(C(F)(F)F)c1 (stereo not drawn) [Compound P6, N-(cyclopropylmethyl)-N-[1-(5-pyrimidin-2-ylpyrimidin-4-yl)ethyl]-3,5-bis(trifluoromethyl)benzamide] |  |  | ≥ 80% | ≥ 80% | ≥ 80% |  |
